# US12485092B2, “Composition for promoting drug release of drug-delivery liposomes” (INDUSTRY ACADEMY COOPERATION FOUNDATION OF SEJONG UNIVERSITY, priority 2022, dated 2025)
# Assays:
# [1] = test system: HCT-116 colorectal cancer cells
# [2] = test system: B16-F10 melanoma cells
# [3] = in vivo; settings: SD, rat, iv, 5 mg/kg
# Procedure: Eight week-old SD rats were randomly divided into three groups (doxorubicin, CAELYX and CAELYX+omega liposome), respectively. Each group was anesthetized with 100 mg/kg of ketamine, followed by inserting polyethylene tubes into the jugular vein and the carotid for drug injection and blood gathering, respectively. To the three groups, the doxorubicin solution, CAELYX and a CAELYX+omega liposome mixture were intravenously administered through the jugular vein at a 5 mg/kg doxorubicin dose. Thereafter, 120 μL of blood was collected at 1, 5, 15, 30, 60, 120, 180, 240, 360, 480, 720, 960, 1,440, 2,160 and 2,880 minutes, respectively, and centrifuged, followed by gathering 50 μl of plasma to analyze a doxorubicin concentration through HPLC. In order to prevent blood coagulation after blood gathering, 0.3 mL of physiological saline for injection containing 201U of heparin was flushed. In addition, after drug administration, urine was collected up to 24 hours and measured for volume.
# For quantification of doxorubicin concentration in plasma and urine, 100 μL of acetonitrile and 15 μL of 15 μg/mL daunorubicin (internal standard material) were added and well mixed in 50 μL of the plasma or urine, and then centrifuged at 13,000 rpm for 5 minutes to remove the plasma protein. Thereafter, 100 μL of the supernatant was introduced into HPLC column (reversed phase column, particle size 5 inner diameter 4.6 mm, length 250 mm). Mobile phase composed of 68:32 (v/v) mixture of water (pH 2.60) and acetonitrile was used at a flow rate of 1 mL/min. For detection of drugs, a fluorescence detector was used wherein excitation (Ex) wavelength is 475 nm and emission (Em) wavelength is 555 nm.
# The plasma concentration of doxorubicin quantified by HPLC assay was used to calculate pharmacokinetic parameters using WinNonlin program. For statistical analysis of the pharmacokinetic parameters among the above three groups, Tukey's test was carried out after performing analysis of variance (ANOVA), wherein P<0.05 is considered to be statistically significant.
smiles,measurement,setting,value
"COc1cccc2c1C(=O)c1c(O)c3c(c(O)c1C2=O)C[C@@](O)(C(=O)CO)C[C@@H]3O[C@H]1C[C@H](N)[C@H](O)[C@H](C)O1 [Doxorubicin solution, doxorubicin]",IC50,[1],265 nM
same,IC50,[2],191 nM
same,AUC,[3],9820 ng·h/mL
same,MRT,[3],1.18 h
same,clearance,[3],8.91 ± 2.06 mL/min/kg
same,half-life,[3],1.97 h
